From patent US11744853B2, “Method of administration and treatment” (Dyve Biosciences, Inc., priority 2017, dated 2023)

Experiments:
MCF-7 tumors = assay: MCF-7 tumor growth in SCID mice, doxorubicin with oral or topical bicarbonate (Example 9); type: in vivo; conditions: B doxorubicin 1.6 mg/kg i.p. days 3, 7, 11; C oral 200 mM bicarbonate; D oral bicarbonate + doxorubicin; E topical formulation 150 μL/day; F topical + doxorubicin
Excerpt: The start of the bicarbonate treatment was designated as day 1. […] On day 15, animals in Groups C and D were placed back on normal drinking water and animals in Groups E and F ceased received t.i.d. topical applications.
Tumor volumes and animal weights were monitored every 2 days.

MCF-7 cells = assay: Doxorubicin uptake and cytotoxicity in MCF-7 cells at medium pH 6.8 or 7.4 (Example 9); type: cell-based
Description: Medium pH was buffered using non-volatile buffers (10 mM MES, 20 mM HEPES and 10 mM TRICINE) in combination with bicarbonate concentrations that were adjusted to be in equilibrium with 5% ambient carbon dioxide. Twenty-four hours later, regular growth medium was replaced and cells allowed to grow a subsequent 72 h, after which time they were fixed and stained with crystal violet for determination of cell number.

doxorubicin
reduction in tumor growth rate (MCF-7 tumors): ~30% | increase in intracellular doxorubicin concentrations on raising the pHe from 6.8 to 7.4 (MCF-7 cells; 14C doxorubicin): 2.56 fold | enhancement of cytotoxicity on raising the pHe from 6.8 to 7.4 (MCF-7 cells; 24 h exposure, crystal violet after a subsequent 72 h): 2.25 fold
